Source: patent US10562897B2, “Substituted 3,4-dihydro-2H-pyrido[1,2-a]pyrazine-1,6-diones as gamma secretase modulators” (Janssen Pharmaceutica NV, priority 2014, dated 2020)
Structures can show the parent of a compound that is named as a salt. Where two headings read alike, the source gives them in different places.

How the values were obtained:
Aβ42 = assay: In vivo efficacy: brain level of soluble Aβ42, non-transgenic rodents, single oral dose 30 mg/kg, 4 h, MSD electrochemiluminescence, untreated control = 100; set-up: species or system mouse; settings: for Aβ42 (% vs Ctrl) _Mean: 30 mg/kg; for response vs control in vivo at 30 mg/kg: Mus musculus, read-out: Aβ42 (% vs Ctrl) _Mean
Description: (§1) To determine whether acute administration of an Aβ42 lowering agent would reduce Aβ42 levels in vivo, non-transgenic rodents, e.g. mice or rats were used. Animals treated with the Aβ42 lowering agent were examined and compared to those untreated or treated with vehicle and brain levels of soluble Aβ42, Aβ40, Aβ38, and Aβ37 were quantitated by Meso Scale Discovery's (MSD) electrochemiluminescence detection technology. Treatment periods varied from hours (h) to days and were adjusted based on the results of the Aβ42 lowering once a time course of onset of effect could be established.
(§2) A typical protocol for measuring Aβ42 lowering in vivo is shown but it is only one of many variations that could be used to optimize the levels of detectable Aβ. For example, Aβ42 lowering compounds were formulated in 20% of Captisol® (a sulfobutyl ether of β-cyclodextrin) in water or 20% hydroxypropyl β cyclodextrin. The Aβ42 lowering agents were administered as a single oral dose or by any acceptable route of administration to overnight fasted animals. After 4 h, the animals were sacrificed and Aβ42 levels were analysed.
(§3) Blood was collected by decapitation and exsanguinations in EDTA-treated collection tubes. Blood was centrifuged at 1900 g for 10 minutes (min) at 4° C. and the plasma recovered and flash frozen for later analysis. The brain was removed from the cranium and hindbrain. The cerebellum was removed and the left and right hemisphere were separated. The left hemisphere was stored at −18° C. for quantitative analysis of test compound levels. The right hemisphere was rinsed with phosphate-buffered saline (PBS) buffer and immediately frozen on dry ice and stored at −80° C. until homogenization for biochemical assays.
(§4) Mouse brains from non-transgenic animals were resuspended in 8 volumes of 0.4% DEA (diethylamine)/50 mM NaCl containing protease inhibitors (Roche-11873580001 or 04693159001) per gram of tissue, e.g. for 0.158 g brain, add 1.264 ml of 0.4% DEA. All samples were homogenized in the FastPrep-24 system (MP Biomedicals) using lysing matrix D (MPBio #6913-100) at 6 m/s for 20 seconds. Homogenates were centrifuged at 20800×g for 5 min and supernatants collected. Supernatants were centrifuged at 221.300×g for 50 min. The resulting high speed supernatants were then transferred to fresh eppendorf tubes. Nine parts of supernatant were neutralized with 1 part 0.5 M Tris-HCl pH 6.8 and used to quantify Aβ.
(§5) To quantify the amount of Aβ42, Aβ40, Aβ38, and Aβ37 in the soluble fraction of the brain homogenates, simultaneous specific detection of Aβ42, Aβ40, Aβ38, and Aβ37 was performed using MSD's electro-chemiluminescence multiplex detection technology. In this assay purified monoclonal antibodies specific for Abeta37 (JRD/Aβ37/3), Abeta38 (J&JPRD/Aβ38/5), Abeta40 (JRF/cAβ40/28), and Abeta42 (JRF/cAβ42/26) were coated on MSD 4-plex plates. Briefly, the standards (a dilution of synthetic Aβ42, Aβ40, Aβ38, and Aβ37) were prepared in 1.5 ml Eppendorf tube in Ultraculture, with final concentrations ranging from 10000 to 0.3 pg/m. The samples and standards were co-incubated with Sulfo-tag labelled JRF/rAß/2 antibody to the N-terminus of Aβ as detector antibody. 50 μl of conjugate/sample or conjugate/standards mixtures were then added to the antibody-coated plate. The plate was allowed to incubate overnight at 4° C. in order to allow formation of the antibody-amyloid complex. Following this incubation and subsequent wash steps the assay was finished by adding read buffer according to the manufacturer's instructions (Meso Scale Discovery, Gaitherburg, Md.).
(§6) The SULFO-TAG emits light upon electrochemical stimulation initiated at the electrode. MSD Sector instrument SI6000 was used for signal read-out.
In this model a Aß42 lowering compared to untreated animals would be advantageous, in particular a Aß42 lowering with at least 10%, more in particular a Aß42 lowering with at least 20%. […]

Aβ40 = assay: In vivo efficacy: brain level of soluble Aβ40, non-transgenic rodents, single oral dose 30 mg/kg, 4 h, MSD electrochemiluminescence, untreated control = 100; set-up: species or system mouse; settings: for response vs control in vivo at 30 mg/kg: Mus musculus, read-out: Aβ40 (% vs Ctrl) _Mean
Description: as §1, §2, §3, §4, §5
The SULFO-TAG emits light upon electrochemical stimulation initiated at the electrode. MSD Sector instrument SI6000 was used for signal read-out. […]

Aβ38 = assay: In vivo efficacy: brain level of soluble Aβ38, non-transgenic rodents, single oral dose 30 mg/kg, 4 h, MSD electrochemiluminescence, untreated control = 100; set-up: species or system mouse; settings: for Aβ38 (% vs Ctrl) _Mean: 30 mg/kg; for response vs control in vivo at 30 mg/kg: Mus musculus, read-out: Aβ38 (% vs Ctrl) _Mean
Description: To determine whether acute administration of an Aβ38 increasing agents would increase Aβ38 levels in vivo, non-transgenic rodents, e.g. mice or rats were used. Animals treated with the Aβ38 increasing agents were examined and compared to those untreated or treated with vehicle and brain levels of soluble Aβ42, Aβ40, Aβ38, and Aβ37 were quantitated by MSD electrochemiluminescence detection technology.
Treatment periods varied from hours (h) to days and were adjusted based on the results of the Aβ38 increase once a time course of onset of effect could be established.
as §2, with “measuring Aβ38 increase” for “measuring Aβ42 lowering”, “example, Aβ38 increasing agents” for “example, Aβ42 lowering compounds”, “The Aβ38 increasing” for “The Aβ42 lowering”, “and Aβ38” for “and Aβ42”
as §3, §4
as §5, with “[…].” for “pg/m.”
as §6
In this model a Aß38 increase compared to untreated animals would be advantageous, in particular a Aß38 increase with at least 10%, more in particular a Aß38 increase with at least 20%. […]

Row | Compound | melting point [°C] | also measured
1 | Cc1cn(-c2ccc3n(c2=O)CC(C)N(C(C)c2cc(OC4CC4)cc(C(F)(F)F)c2)C3=O)cn1 (centres unmarked) [Compound 49] |  | Aβ42 (% vs Ctrl) _Mean (Aβ42; dose 30 mg/kg oral dosing): 85 % vs Ctrl; Aβ40 (% vs Ctrl) _Mean (Aβ40; dose 30 mg/kg oral dosing, 30 mg/kg): 101 % vs Ctrl; Aβ38 (% vs Ctrl) _Mean (Aβ38; dose 30 mg/kg oral dosing): 123 % vs Ctrl
2 | Cc1cn(-c2ccc3n(c2=O)CC(C)N(CCN2CCCC(C(F)(F)F)C2)C3=O)cn1 (centres unmarked) (as salt: HCl) [Compound 43] | 138 | 
3 | Cc1cn(-c2ccc3n(c2=O)CC(C)N(Cc2cc4c(s2)CCC(C(F)(F)F)C4)C3=O)cn1 (centres unmarked) [Compound 34] |  | response vs control in vivo at 30 mg/kg (Aβ42; po, dose 30 mg/kg oral dosing): 104%; response vs control in vivo at 30 mg/kg (Aβ40; po, dose 30 mg/kg oral dosing): 128%; response vs control in vivo at 30 mg/kg (Aβ38; po, dose 30 mg/kg oral dosing): 102%
4 | Cc1cn(-c2ccc3n(c2=O)CCN(C(C)c2coc4cc(C(F)(F)F)ccc24)C3=O)cn1 (single isomer, unassigned) [Compound 68] | 204 | 
5 | Cc1cn(-c2ccc3n(c2=O)C[C@@H](C)N(Cc2coc4c(F)cc(Cl)cc24)C3=O)cn1 [Compound 62] |  | response vs control in vivo at 30 mg/kg (Aβ42; po, dose 30 mg/kg oral dosing): 82%; response vs control in vivo at 30 mg/kg (Aβ40; po, dose 30 mg/kg oral dosing): 87%; response vs control in vivo at 30 mg/kg (Aβ38; po, dose 30 mg/kg oral dosing): 113%
6 | Cc1cn(-c2ccc3n(c2=O)CC(C)N(Cc2ccc(C)c(N4CC5CC5C4)c2)C3=O)cn1 (centres unmarked) [Compound 30] |  | response vs control in vivo at 30 mg/kg (Aβ42; po, dose 30 mg/kg oral dosing): 118%; response vs control in vivo at 30 mg/kg (Aβ40; po, dose 30 mg/kg oral dosing): 126%; response vs control in vivo at 30 mg/kg (Aβ38; po, dose 30 mg/kg oral dosing): 121%
7 | Cc1cn(-c2ccc3n(c2=O)CC(C)N(C(C)c2cc(OC4CC4)cc(C(F)(F)F)c2)C3=O)cn1 (centres unmarked) (as salt: HCl) [Compound 48] | 122 | 
8 | Cc1cn(-c2ccc3n(c2=O)C[C@@H](C)N(CC2(c4cc(OC5CC5)cc(C(F)(F)F)c4)CC2)C3=O)cn1 [Compound 53] |  | response vs control in vivo at 30 mg/kg (Aβ42; po, dose 30 mg/kg oral dosing): 120%; response vs control in vivo at 30 mg/kg (Aβ40; po, dose 30 mg/kg oral dosing): 121%; response vs control in vivo at 30 mg/kg (Aβ38; po, dose 30 mg/kg oral dosing): 124%
9 | Cc1cn(-c2ccc3n(c2=O)CCN(CC2Cc4c(cccc4C(F)(F)F)O2)C3=O)cn1 (centres unmarked) [Compound 44] | 128 | 
10 | Cc1cn(-c2ccc3n(c2=O)CC(C)N(C(C)c2coc4ccc(C(F)(F)F)cc24)C3=O)cn1 (centres unmarked) [Compound 79] |  | response vs control in vivo at 30 mg/kg (Aβ42; sc, 30 mpk sc): 54%; response vs control in vivo at 30 mg/kg (Aβ40; sc, 30 mpk sc (footnote *)): 62%; response vs control in vivo at 30 mg/kg (Aβ38; sc, 30 mpk sc): 175%
11 | Cc1cn(-c2ccc3n(c2=O)CC(C)N(C(C)c2cc(OC4CC4)cc(C(F)(F)F)c2)C3=O)cn1 (centres unmarked) [Compound 48] |  | Aβ42 (% vs Ctrl) _Mean (Aβ42; dose 30 mg/kg oral dosing): 60 % vs Ctrl; response vs control in vivo at 30 mg/kg (Aβ40; po, dose 30 mg/kg oral dosing): 91%; Aβ38 (% vs Ctrl) _Mean (Aβ38; dose 30 mg/kg oral dosing): 161 % vs Ctrl
12 | Cc1cn(-c2ccc3n(c2=O)C[C@@H](C)N(Cc2cc(OC4CC4)cc(C(F)(F)F)c2)C3=O)cn1 (as salt: HCl) [Compound 33] | 149 | 
13 | Cc1cn(-c2ccc3n(c2=O)CC(C)N(C(C)c2ccc(OC(F)(F)F)c(O)c2)C3=O)cn1 (centres unmarked) (as salt: HCl) [Compound 51] | 212 | 
14 | Cc1cn(-c2ccc3n(c2=O)C[C@@H](C)N(Cc2cc(C(C)C)nn2CC(F)(F)F)C3=O)cn1 [Compound 19] | 144 | 
15 | Cc1cn(-c2ccc3n(c2=O)CCN(C(C)c2coc4cc(C(F)(F)F)ccc24)C3=O)cn1 (single isomer, unassigned) [Compound 67] | 200 | 
16 | Cc1cn(-c2ccc3n(c2=O)C[C@@H](C)N(CCc2cc(OC4CC4)cc(C(F)(F)F)c2)C3=O)cn1 (as salt: HCl) [Compound 40] | 102 | 
17 | Cc1cn(-c2ccc3n(c2=O)CC(C)N(C(C)c2ccc(OC(F)(F)F)c(O)c2)C3=O)cn1 (centres unmarked) (as salt: HCl) [Compound 52] | 223 | 
18 | Cc1cn(-c2ccc3n(c2=O)C[C@@H](C)N(CC2(c4cc(OC5CC5)cc(C(F)(F)F)c4)CC2)C3=O)cn1 (as salt: HCl) [Compound 53] | 197 | 

Now from value to compound, other results behind:

Row | melting point [°C] | Compound | also measured
19 | 201 | Cc1cn(-c2ccc3n(c2=O)CC(C)N(C(C)c2coc4c(F)cc(Cl)cc24)C3=O)cn1 (centres unmarked) [Compound 96] | 
20 | 140 | Cc1cn(-c2ccc3n(c2=O)C[C@@H](C)N(Cc2noc4ccc(C(F)(F)F)cc24)C3=O)cn1 [Compound 101] | 
21 | 110 | Cc1cn(-c2ccc3n(c2=O)C[C@@H](C)N(Cc2csc(CC(F)(F)F)c2)C3=O)cn1 [Compound 29] | 
22 | 170 | Cc1cn(-c2ccc3n(c2=O)C[C@@H](C)N(Cc2cnn4ccc(C(F)(F)F)cc24)C3=O)cn1 [Compound 9] | 
23 | 122 | Cc1cn(-c2ccc3n(c2=O)CC(C)N(Cc2ccc(C)c(N4CC5CC5C4)c2)C3=O)cn1 (centres unmarked) (as salt: HCl) [Compound 30] | 
24 | 147 | Cc1cn(-c2ccc3n(c2=O)CC(C)N(Cc2noc4ccc(Cl)cc24)C3=O)cn1 (centres unmarked) [Compound 14] | 
25 | 162 | Cc1cn(-c2ccc3n(c2=O)C[C@@H](C)N(Cc2csc(C(F)(F)F)c2)C3=O)cn1 [Compound 28] | 
26 | 234 | Cc1cn(-c2ccc3n(c2=O)CCN(C(C)c2coc4cc(F)c(Cl)cc24)C3=O)cn1 (single isomer, unassigned) [Compound 60] | 
27 | 225 | Cc1cn(-c2ccc3n(c2=O)C[C@@H](C)N(Cc2coc4c(C(F)(F)F)cccc24)C3=O)cn1 [Compound 71] | 
28 | 227 | Cc1cn(-c2ccc3n(c2=O)C[C@@H](C)N(Cc2coc4c(Cl)c(Cl)ccc24)C3=O)cn1 [Compound 97] | 
29 | 232 | Cc1cn(-c2ccc3n(c2=O)CCN(Cc2coc4c(F)cc(Cl)cc24)C3=O)cn1 [Compound 56] | 
30 | 164 | Cc1cn(-c2ccc3n(c2=O)C[C@@H](C)N(Cc2cc4cc(C(F)(F)F)ccc4o2)C3=O)cn1 [Compound 26] | 
